Source: ChEMBL document CHEMBL4507291 (2021)

Columns and labels:
[1] = target: Serine/threonine-protein kinase Nek3 (Homo sapiens) (UniProt P51956)
[2] = target: Homeodomain-interacting protein kinase 3 (Homo sapiens) (UniProt Q9H422)
[3] = target: Casein kinase I isoform gamma-2 (Homo sapiens) (UniProt P78368)
[4] = test system: Receptor-type tyrosine-protein kinase FLT3 (Homo sapiens), P36888 [R834Q]
[5] = target: Serine/threonine-protein kinase PAK 2 (Homo sapiens) (UniProt Q13177)
[6] = target: Rhodopsin kinase GRK1 (Homo sapiens) (UniProt Q15835)
Chain of Rhodopsin kinase GRK1 (Homo sapiens) (Q15835 whole entry): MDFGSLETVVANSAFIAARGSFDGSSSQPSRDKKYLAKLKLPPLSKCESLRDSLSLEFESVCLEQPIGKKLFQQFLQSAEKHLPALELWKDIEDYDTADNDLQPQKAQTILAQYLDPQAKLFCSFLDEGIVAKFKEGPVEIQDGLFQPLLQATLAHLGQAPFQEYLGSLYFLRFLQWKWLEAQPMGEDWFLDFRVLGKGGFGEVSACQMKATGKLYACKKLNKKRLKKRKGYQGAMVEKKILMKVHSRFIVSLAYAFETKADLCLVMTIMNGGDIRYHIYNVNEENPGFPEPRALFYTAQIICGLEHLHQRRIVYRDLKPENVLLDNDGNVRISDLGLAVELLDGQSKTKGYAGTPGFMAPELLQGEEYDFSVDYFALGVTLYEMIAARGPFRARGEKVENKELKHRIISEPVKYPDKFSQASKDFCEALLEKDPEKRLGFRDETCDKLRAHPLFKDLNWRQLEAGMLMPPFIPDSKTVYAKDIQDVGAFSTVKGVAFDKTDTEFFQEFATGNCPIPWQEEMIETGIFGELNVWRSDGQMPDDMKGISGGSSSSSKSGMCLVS

[7] = target: T1, Serine/threonine-protein kinase 4 (Homo sapiens) (UniProt Q13043)
T1 sequence (whole entry): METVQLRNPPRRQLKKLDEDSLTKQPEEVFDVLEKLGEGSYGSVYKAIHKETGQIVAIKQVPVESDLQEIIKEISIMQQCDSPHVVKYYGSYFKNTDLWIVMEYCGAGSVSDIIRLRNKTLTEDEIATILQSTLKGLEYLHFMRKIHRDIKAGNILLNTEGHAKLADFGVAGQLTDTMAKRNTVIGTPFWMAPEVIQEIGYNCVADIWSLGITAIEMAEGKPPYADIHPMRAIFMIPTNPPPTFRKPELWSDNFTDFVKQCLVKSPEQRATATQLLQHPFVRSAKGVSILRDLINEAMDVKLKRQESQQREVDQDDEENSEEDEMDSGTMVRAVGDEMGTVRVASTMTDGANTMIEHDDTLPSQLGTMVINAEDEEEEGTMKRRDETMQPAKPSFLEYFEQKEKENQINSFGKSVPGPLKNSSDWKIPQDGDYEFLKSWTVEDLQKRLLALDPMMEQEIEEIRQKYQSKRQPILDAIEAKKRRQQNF

[8] = target: T2, Discoidin domain-containing receptor 2 (Homo sapiens) (UniProt Q16832)
T2 sequence (whole entry): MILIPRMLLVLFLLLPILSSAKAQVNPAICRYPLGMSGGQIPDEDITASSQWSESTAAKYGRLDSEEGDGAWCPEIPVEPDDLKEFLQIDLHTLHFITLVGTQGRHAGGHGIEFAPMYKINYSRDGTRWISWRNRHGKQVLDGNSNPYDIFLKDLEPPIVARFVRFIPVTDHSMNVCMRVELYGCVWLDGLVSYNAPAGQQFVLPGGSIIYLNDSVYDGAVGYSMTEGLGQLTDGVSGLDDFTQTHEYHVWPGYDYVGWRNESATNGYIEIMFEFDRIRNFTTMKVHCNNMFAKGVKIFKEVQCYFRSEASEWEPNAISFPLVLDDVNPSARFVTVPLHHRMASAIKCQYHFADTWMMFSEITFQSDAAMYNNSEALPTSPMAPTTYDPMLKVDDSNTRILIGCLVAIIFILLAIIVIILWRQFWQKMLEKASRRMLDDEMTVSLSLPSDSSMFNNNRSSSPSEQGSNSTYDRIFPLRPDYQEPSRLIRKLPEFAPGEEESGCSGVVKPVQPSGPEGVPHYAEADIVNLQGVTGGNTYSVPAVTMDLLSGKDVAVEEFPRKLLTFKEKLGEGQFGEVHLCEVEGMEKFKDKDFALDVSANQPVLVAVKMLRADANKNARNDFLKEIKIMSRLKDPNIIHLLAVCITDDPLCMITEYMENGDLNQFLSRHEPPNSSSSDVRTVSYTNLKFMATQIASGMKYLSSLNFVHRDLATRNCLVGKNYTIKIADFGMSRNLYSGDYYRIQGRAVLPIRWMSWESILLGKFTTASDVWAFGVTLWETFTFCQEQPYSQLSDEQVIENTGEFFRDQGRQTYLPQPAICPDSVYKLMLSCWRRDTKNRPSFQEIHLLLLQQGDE

[9] = target: Ephrin type-A receptor 7 (Homo sapiens) (UniProt Q15375)
[10] = target: Protein-tyrosine kinase 6 (Homo sapiens) (UniProt Q13882)
[11] = target: LIM domain kinase 2 (Homo sapiens) (UniProt P53671)
Chain of LIM domain kinase 2 (Homo sapiens) (P53671 whole entry, looked up, the tested form may be a part): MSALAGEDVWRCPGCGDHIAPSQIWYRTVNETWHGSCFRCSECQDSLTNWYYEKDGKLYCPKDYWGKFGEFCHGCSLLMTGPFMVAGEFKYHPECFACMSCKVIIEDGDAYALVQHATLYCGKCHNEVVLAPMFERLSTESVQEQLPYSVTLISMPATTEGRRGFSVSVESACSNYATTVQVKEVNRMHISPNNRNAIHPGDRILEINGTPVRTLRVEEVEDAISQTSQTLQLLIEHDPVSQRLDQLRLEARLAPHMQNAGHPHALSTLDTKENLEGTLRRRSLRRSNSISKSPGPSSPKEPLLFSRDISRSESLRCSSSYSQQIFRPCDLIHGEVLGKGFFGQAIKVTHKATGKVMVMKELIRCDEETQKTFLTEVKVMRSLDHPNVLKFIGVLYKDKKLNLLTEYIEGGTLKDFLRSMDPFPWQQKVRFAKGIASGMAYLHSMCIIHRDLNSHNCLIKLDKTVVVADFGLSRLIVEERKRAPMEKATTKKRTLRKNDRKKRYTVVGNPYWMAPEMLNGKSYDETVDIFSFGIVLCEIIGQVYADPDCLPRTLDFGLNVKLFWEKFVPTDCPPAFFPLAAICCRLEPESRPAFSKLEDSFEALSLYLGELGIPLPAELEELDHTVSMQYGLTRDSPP

[12] = target: Serine/threonine-protein kinase SIK2 (Homo sapiens) (UniProt Q9H0K1)
[13] = target: Serine/threonine-protein kinase 38-like (Homo sapiens) (UniProt Q9Y2H1)
[14] = test system: ALK tyrosine kinase receptor (Homo sapiens), Q9UM73 [C1156Y]
[15] = target: RAF proto-oncogene serine/threonine-protein kinase (Homo sapiens) (UniProt P04049)
[16] = target: Myosin-IIIb (Homo sapiens) (UniProt Q8WXR4)
[17] = test system: Phosphatidylinositol 4,5-bisphosphate 3-kinase catalytic subunit alpha isoform (Homo sapiens), P42336 [I800L]
[18] = target: T3, Aurora kinase C (Homo sapiens) (UniProt Q9UQB9)
T3 sequence (whole entry): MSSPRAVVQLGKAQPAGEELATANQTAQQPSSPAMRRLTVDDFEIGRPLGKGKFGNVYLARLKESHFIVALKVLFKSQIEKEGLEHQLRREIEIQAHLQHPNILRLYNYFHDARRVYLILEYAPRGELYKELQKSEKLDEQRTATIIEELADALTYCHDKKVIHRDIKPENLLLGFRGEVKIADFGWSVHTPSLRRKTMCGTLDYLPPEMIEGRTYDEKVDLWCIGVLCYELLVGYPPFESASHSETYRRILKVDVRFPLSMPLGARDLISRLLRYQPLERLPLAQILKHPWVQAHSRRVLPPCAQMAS

[19] = test system: Phosphatidylinositol 4,5-bisphosphate 3-kinase catalytic subunit alpha isoform (Homo sapiens), P42336 [H1047Y]
Chain of Phosphatidylinositol 4,5-bisphosphate 3-kinase catalytic subunit alpha isoform (Homo sapiens), P42336 [H1047Y] (P42336 whole entry H1047Y, canonical isoform): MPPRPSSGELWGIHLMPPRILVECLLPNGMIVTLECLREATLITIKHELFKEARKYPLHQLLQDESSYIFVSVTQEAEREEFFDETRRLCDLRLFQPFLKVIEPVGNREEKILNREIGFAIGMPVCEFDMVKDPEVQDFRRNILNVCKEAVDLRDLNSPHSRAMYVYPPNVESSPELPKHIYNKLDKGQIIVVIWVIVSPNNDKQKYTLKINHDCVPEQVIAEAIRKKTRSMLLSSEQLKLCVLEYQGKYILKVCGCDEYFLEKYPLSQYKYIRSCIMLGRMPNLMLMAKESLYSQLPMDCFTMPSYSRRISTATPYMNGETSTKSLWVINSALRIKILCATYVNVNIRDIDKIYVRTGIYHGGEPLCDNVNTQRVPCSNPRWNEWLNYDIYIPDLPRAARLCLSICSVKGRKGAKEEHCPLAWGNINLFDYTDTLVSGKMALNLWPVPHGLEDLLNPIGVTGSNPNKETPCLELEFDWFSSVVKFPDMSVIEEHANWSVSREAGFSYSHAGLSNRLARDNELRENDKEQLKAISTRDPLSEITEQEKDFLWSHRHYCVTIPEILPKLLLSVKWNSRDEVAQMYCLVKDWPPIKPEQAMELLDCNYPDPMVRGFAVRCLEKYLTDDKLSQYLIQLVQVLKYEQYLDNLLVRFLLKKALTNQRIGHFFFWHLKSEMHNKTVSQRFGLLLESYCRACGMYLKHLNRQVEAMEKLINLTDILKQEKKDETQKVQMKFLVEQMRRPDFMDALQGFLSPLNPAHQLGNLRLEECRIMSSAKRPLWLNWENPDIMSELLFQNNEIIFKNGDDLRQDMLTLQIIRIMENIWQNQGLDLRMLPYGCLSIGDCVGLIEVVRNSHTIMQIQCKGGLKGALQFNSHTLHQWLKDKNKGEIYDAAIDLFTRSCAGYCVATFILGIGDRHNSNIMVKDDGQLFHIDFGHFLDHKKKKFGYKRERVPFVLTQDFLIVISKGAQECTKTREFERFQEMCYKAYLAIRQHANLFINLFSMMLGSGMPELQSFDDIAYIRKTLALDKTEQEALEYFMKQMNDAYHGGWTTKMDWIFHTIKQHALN

[20] = target: Dual specificity testis-specific protein kinase 1 (Homo sapiens) (UniProt Q15569)
Chain of Dual specificity testis-specific protein kinase 1 (Homo sapiens) (Q15569 whole entry, looked up): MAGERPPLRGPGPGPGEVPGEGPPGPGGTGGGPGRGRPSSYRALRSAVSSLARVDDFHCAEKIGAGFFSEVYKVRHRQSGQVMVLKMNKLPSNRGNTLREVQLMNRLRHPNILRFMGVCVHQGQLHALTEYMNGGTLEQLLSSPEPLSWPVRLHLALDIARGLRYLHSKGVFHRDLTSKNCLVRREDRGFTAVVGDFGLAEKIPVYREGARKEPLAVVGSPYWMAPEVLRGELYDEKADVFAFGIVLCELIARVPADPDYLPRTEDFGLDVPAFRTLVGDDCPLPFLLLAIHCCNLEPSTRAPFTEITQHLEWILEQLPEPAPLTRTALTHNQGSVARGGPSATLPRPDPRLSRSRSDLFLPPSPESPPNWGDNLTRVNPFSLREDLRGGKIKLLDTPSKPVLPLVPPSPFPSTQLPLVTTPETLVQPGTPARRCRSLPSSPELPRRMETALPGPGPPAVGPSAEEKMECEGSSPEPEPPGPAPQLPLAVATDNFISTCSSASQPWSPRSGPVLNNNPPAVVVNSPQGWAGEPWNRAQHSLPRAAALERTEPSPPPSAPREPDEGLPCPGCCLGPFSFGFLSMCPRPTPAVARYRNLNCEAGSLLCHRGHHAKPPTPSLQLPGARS

[21] = Compound concentration 1000.0 nM
[22] = Compound concentration 100.0 nM

Measured: residual activity

Chain of Homeodomain-interacting protein kinase 3 (Homo sapiens) (Q9H422 whole entry, looked up, canonical isoform): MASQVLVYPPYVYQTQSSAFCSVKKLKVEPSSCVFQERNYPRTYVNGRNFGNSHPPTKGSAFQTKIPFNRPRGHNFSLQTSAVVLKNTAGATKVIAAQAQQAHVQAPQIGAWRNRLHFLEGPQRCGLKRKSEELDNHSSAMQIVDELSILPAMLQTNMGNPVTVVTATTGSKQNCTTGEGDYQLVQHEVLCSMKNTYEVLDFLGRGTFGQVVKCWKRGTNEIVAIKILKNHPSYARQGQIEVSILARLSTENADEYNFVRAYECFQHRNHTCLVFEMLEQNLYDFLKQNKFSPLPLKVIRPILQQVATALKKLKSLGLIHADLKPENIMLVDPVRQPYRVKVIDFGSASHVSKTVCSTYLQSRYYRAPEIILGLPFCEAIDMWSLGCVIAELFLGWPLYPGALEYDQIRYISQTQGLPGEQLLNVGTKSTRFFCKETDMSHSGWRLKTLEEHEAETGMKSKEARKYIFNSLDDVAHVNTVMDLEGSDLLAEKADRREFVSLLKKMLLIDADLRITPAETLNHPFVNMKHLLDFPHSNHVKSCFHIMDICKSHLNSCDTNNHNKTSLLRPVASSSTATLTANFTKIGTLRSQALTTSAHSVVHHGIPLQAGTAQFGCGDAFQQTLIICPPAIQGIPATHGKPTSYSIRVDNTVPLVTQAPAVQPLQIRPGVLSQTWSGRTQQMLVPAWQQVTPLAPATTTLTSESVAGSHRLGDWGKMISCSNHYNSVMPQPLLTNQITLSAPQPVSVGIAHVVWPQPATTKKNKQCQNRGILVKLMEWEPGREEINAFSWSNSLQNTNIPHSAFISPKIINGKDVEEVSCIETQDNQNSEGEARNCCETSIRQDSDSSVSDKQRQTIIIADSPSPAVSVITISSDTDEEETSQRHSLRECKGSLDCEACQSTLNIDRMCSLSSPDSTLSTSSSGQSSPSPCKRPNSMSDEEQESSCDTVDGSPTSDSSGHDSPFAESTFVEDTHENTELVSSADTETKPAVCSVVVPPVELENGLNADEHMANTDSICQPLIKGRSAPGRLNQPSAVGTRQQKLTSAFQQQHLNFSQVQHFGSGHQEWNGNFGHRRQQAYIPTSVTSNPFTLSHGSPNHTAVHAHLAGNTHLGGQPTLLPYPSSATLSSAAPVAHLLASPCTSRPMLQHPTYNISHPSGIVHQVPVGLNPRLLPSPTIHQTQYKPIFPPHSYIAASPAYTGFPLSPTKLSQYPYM
Chain of Casein kinase I isoform gamma-2 (Homo sapiens) (P78368 whole entry, looked up, canonical isoform): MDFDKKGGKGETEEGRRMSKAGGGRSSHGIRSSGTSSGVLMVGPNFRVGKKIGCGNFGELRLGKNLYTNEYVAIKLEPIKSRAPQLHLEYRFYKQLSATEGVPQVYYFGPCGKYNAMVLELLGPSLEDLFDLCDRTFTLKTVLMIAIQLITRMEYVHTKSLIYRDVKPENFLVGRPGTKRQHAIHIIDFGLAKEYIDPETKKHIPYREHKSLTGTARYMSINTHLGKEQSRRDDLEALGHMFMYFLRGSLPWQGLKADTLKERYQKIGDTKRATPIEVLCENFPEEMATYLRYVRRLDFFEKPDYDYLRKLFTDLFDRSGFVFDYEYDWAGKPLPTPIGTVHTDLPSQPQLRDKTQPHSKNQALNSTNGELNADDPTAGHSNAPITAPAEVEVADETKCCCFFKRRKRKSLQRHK
Chain of Serine/threonine-protein kinase Nek3 (Homo sapiens) (P51956 whole entry): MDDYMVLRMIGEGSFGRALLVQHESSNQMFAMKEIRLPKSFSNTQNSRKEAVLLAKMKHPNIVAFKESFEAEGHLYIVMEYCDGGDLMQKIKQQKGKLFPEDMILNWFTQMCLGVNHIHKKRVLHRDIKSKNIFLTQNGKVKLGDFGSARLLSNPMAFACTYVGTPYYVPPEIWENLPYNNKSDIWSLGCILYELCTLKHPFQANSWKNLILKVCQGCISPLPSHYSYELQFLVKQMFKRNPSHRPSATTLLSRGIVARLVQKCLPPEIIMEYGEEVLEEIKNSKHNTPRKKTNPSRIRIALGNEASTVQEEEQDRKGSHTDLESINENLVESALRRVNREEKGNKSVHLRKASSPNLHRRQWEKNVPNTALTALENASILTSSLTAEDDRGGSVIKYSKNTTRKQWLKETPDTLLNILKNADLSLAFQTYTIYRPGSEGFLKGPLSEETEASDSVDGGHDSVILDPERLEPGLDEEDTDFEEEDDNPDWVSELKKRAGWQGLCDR

C[C@@H]1CN(c2cc(-c3nn(C)c4ccc(OC5(C)CC5)cc34)ncn2)C[C@H](C)O1 [MLi-2-NC]
inactive: [1]; [21] 99% | [2]; [21] 91% | [3]; [21] 100% | [4]; [21] 90% | [5]; [21] 90% | [6]; [21] 100% | [7]; [21] 100% | [8]; [21] 79% | [9]; [21] 99% | [10]; [21] 92% | [11]; [21] 92% | [12]; [21] 100% | [13]; [21] 72% | [14]; [21] 82% | [15]; [21] 100% | [16]; [21] 100% | [17]; [21] 66% | [18]; [21] 100% | [19]; [21] 100% | [20]; [21] 100%

C[C@@H]1CN(c2cc(-c3n[nH]c4ccc(OC5(C)CC5)cc34)ncn2)C[C@H](C)O1 [MLi-2]
inactive: [1]; [22] 76% | [2]; [22] 73% | [3]; [22] 100% | [4]; [22] 78% | [5]; [22] 95% | [6]; [22] 83% | [7]; [22] 83% | [8]; [22] 82% | [9]; [22] 82% | [10]; [22] 100% | [11]; [22] 91% | [12]; [22] 87% | [13]; [22] 85% | [14]; [22] 89% | [15]; [22] 100% | [16]; [22] 89% | [17]; [22] 87% | [18]; [22] 100% | [19]; [22] 76% | [20]; [22] 75%
